Data from patent publication US7893252B2, “Selectively depolymerized galactomannan polysaccharide” (priority 2003, dated 2011).

Experiments:
Format in all cases: in vivo
beagle dogs = test: 28-day canine study (Example 9); conditions: galactomannan at 500 mg/m2, daily IV for four consecutive days
Method: In a 28-day canine study, single daily IV doses of saline, 6 mg/kg (120 mg/m2) 5-FU and ([…] (240 mg/m2) galactomannan or 4/2 mg/kg (80/40 mg/m2), 6/3.2 mg/kg (120/64 mg/m2) or 6/6 mg/kg (120/120 mg/m2) 5-FU/galactomannan were injected for four consecutive days to six groups of beagle dogs Mortality occurred in 13 of 48 dogs (five moribund sacrifices and eight found dead) between Study Days 2 and 5 (4/4 males on 5-FU; 3/4 males in the 4/2 mg/kg 5-FU/galactomannan group; 2/4 males and 1/4 females in the 6/3.2 and 6/6 mg/kg 5-FU/galactomannan groups, respectively).
Adverse effects in 5-FU groups included ataxia, prostration, vocalization, convulsions, tremors, hypersensitivity to touch, aggressive behavior (resulting in only three doses being given to the 6/3.2 5-FU/galactomanna group), emesis, salivation, soft stools and decreased red cell parameters and platelet counts. […] At the day 5 necropsy, treatment-related histological changes were largely limited to the 5-FU females. At day 29 necropsy, there were no remarkable changes in the survivors.

rats [1] = test: Acute toxicology, single IV dose in rats
Method: Acute toxicology studies of the galactomannan of the present invention were performed in mice, rats and dogs and subchronic toxicology studies were performed in rats and dogs. The following is a summary of the findings of these studies:
In rats (n=5/sex/group), single IV doses of 140 mg/kg (840 mg/m2) 5-FU, 72 mg/kg (432 mg/m2) galactomannan or 140/72 mg/kg of the combination produced no deaths in any of the groups.
Toxic changes in body weight, feed consumption, and hematology were less severe in the rats injected with the combination, versus those injected with 5-FU alone.

[2] = Biodistribution of 3H-galactomannan in tumor-bearing and non-tumor bearing mice (Example 6)
Method: The biodistribution of 3H-galactomannan was studied in tumor-bearing and non-tumor bearing mice. […] 3H-galactomannan elimination from plasma, kidneys, lungs and tumor in the various groups was rapid, an average of approximately 50% of the one-hour radioactivity was detected at six hours except in tumor-bearing mice, where the radioactivity in tumor samples from mice treated with 6 or 60 mg/kg of 3H-galactomannan with or without 5-FU averaged approximately 72% remaining after six hours. Elimination of 3H-galactomannan from the liver was more gradual than in other tissues, and on average, more than 50% of the radioactivity detected at one hour after injection was still present at 24 hours.
Male NCr-nu athymic nude mice (Charles Rivers Laboratories, Raleigh, N.C.) were acclimated and housed as described above. The first set of animals (a total of 18 mice) were non-tumored mice. The second set of 18 mice were tumored as follows. […]
Tritiation of GM from G. triacanthos was performed as follows. […] Total yield of the labeled GM was 3.8 mCi, specific radioactivity was 300 μCi/mg.
All 36 mice, divided into 18 groups, were given a single intravenous injection of cold or tritiated GM (either 6 or 60 mg/kg) or of a combination of GM (60 mg/kg, cold or tritiated) and 5-FU (114 mg/kg) on the same day. Non-labeled GM was formulated in saline, and tritiated GM was added to the solution so that each animal received 10 μCi of radioactivity. […] All dosing solutions (100 μL each) were counted in duplicate. […]
After weighing, livers were dissolved in 10 mL of Soluene 350 (Packard Instruments, Downers Grove, Ill.) and incubated first for 4 hrs at 50° C., and at room temperature, until tissues were solubilized. One millilter of the resulting solution was counted in a scintillation counter as a single sample. Based on tissue weight and the sample volume, the number of μCi of tritiated GM per gram of tissue was calculated.
Kidneys were treated in the same manner, but dissolved in 2 mL of Soluene. […] Plasma samples (50 μL each) were placed direct into Safety Solve and counted as a single sample. […]

rats [3] = test: Repeat dose I.V. rat study with GMP grade galactomannan (Example 8)
Method: Studies with repeat dose I.V. in rats with up to 52-day recovery period was performed using filtered GMP grade galactomannan material containing 48 or 96 mg/kg (288 or 576 mg/m2). Five animals of each sex were sacrificed at days 5, 28 and 56.
The galactomannan of the invention has minimal histological effects with only 1/30 rats injected with 48 mg/kg dose of the GMP galactomannan clinical solution having granulomatous inflammation. […] It was concluded that galactomannan clinical solutions, up to a dose of 15 mg/kg (555 mg/m2; 9 mg/mL), is safe for human use and poses no undue risk to health.

Q: Which results are given for “(((1,4)-linked β-D-mannopyranose)17-((1,6)-linked-β-D-galactopyranose)10)12) [GM]”?
A: adverse effects (beagle dogs): no observed adverse effects; deaths (rats [1]; 5-FU 140 mg/kg, galactomannan 72 mg/kg, combination 140/72 mg/kg, n=5/sex/group): no deaths; untoward effects (rats [1]; galactomannan 72 mg/kg (432 mg/m2) alone): no significant untoward effects; increase of the amount of bound galactomannan for the 10-times higher dose ([2]; 60 mg/kg versus 6 mg/kg): 10 fold; saturation of binding ([2]; 6 to 60 mg/kg (18 to 180 mg/m2)): did not reach saturation; binding to liver, kidney, lung, tumor, and plasma ([2]; single i.v. injection, 6 or 60 mg/kg): freely binds; rats having granulomatous inflammation (rats [3]; 48 mg/kg dose of GMP galactomannan clinical solution): 1/30; rats having granulomatous inflammation (rats [3]; 96 mg/kg dose of GMP galactomannan clinical solution): None of the 30
